US20060153933A1 (priority 2002, published 2006)
Like-named read-outs stand apart in the source and are kept apart here.

What was measured:
Assay type in all cases: in vivo
[1] = tested on: Phytophthora infestans (PHYTIN); conditions: 1DC
[2] = tested on: Plasmopara viticola (PLASVI); conditions: 1DC
[3] = tested on: Phytophthora infestans (PHYTIN); assay: whole plant or invertebrate
[4] = tested on: Plasmopara viticola (PLASVI); assay: whole plant or invertebrate

**Q.** Which results are given for `COC(=O)C(C)N(C(=O)Cc1ccccc1)c1c(C)cccc1C` (stereo not drawn) [Benalaxyl, benalaxyl]?
**A.** % Disease Control (Observed) ([1]; 1.90 ppm alone): 8.8%; % Disease Control (Observed) ([1]; 16.70 ppm alone): 12.3%; % Disease Control (Observed) ([2]; 0.60 ppm alone): 24.6%

**Q.** Which results are given for `CC(C)OC(=O)N[C@H](C(=O)N[C@H](C)c1nc2ccc(F)cc2s1)C(C)C` [Benthivalicarb, benthivalicarb]?
**A.** % Disease Control (Observed) ([1]; 0.62 ppm alone): 28.1%; % Disease Control (Observed) ([3]; 1DP, 0.62 ppm alone): 31.6%; % Disease Control (Observed) ([4]; 1DP, 0.62 ppm alone): 57.9%

**Q.** `CCNC(=O)NC(=O)/C(C#N)=N/OC` [Cymoxanil, cymoxanil] was tested. Which “% Disease Control (Observed)” value ([1]; 16.7 ppm alone) did it give?
**A.** 49.1%

**Q.** And the “% Disease Control (Observed)” value ([3]; PHYTIN 3DP, applied alone at 1.1 ppm)?
**A.** 1.8%

**Q.** And the “% Disease Control (Observed)” value ([2]; 5.56 ppm alone)?
**A.** 10.5%

**Q.** What about the “% Disease Control (Observed)” value ([2]; 16.70 ppm alone) of the same molecule?
**A.** 35.1%

**Q.** What about the “% Disease Control (Observed)” value ([4]; PLASVI 3DP, applied alone at 1.1 ppm) of the same molecule?
**A.** 17.5%

**Q.** Which results are given for `COc1ccc(C(=CC(=O)N2CCOCC2)c2ccc(Cl)cc2)cc1OC` [Dimethomorph, dimethomorph]?
**A.** % Disease Control (Observed) ([1]; 5.56 ppm alone): 0.0%; % Disease Control (Observed) ([1]; 16.70 ppm alone): 29.8%; % Disease Control (Observed) ([1]; 50.00 ppm alone): 33.3%; % Disease Control (Observed) ([3]; PHYTIN 3DP, applied alone at 1.4 ppm): 3.5%; pest or weed control at 1.85 ppm ([3]; Phytophthora infestans, 72 h, read-out: % Disease Control (observed)): 12.3%; pest or weed control at 0.62 ppm ([3]; Phytophthora infestans, 72 h, read-out: % Disease Control (observed), 3DP, 0.62 ppm alone): 0%; % Disease Control (Observed) ([2]; 5.56 ppm alone): 8.8%; % Disease Control (Observed) ([4]; PLASVI 3DP, applied alone at 0.5 ppm): 3.5%; % Disease Control (Observed) ([4]; PLASVI 3DP, applied alone at 1.4 ppm): 22.8%; pest or weed control at 1.85 ppm ([4]; Plasmopara viticola, 72 h, read-out: % Disease Control (observed), 3DP, 1.85 ppm alone): 5.3%; pest or weed control at 5.56 ppm ([4]; Plasmopara viticola, 72 h, read-out: % Disease Control (observed), 3DP, 5.56 ppm alone): 63.2%

**Q.** `Cc1ccc(C(C)NC(=O)[C@@H](NC(=O)OC(C)C)C(C)C)cc1` (stereo partly drawn) [Iprovalicarb, iprovalicarb] was tested. Which “% Disease Control (Observed)” value ([3]; 3DP, 5.56 ppm alone) did it give?
**A.** 1.8%

**Q.** What about the “% Disease Control (Observed)” value ([3]; 3DP, 16.70 ppm alone) of the same molecule?
**A.** 33.3%

**Q.** And the “% Disease Control (Observed)” value ([2]; 5.56 ppm alone)?
**A.** 40.0%

**Q.** What about the “% Disease Control (Observed)” value ([2]; 16.70 ppm alone) of the same molecule?
**A.** 50.0%

**Q.** What about the “% Disease Control (Observed)” value ([4]; 3DP, 1.85 ppm alone) of the same molecule?
**A.** 8.8%

**Q.** What about the “% Disease Control (Observed)” value ([4]; 3DP, 5.56 ppm alone) of the same molecule?
**A.** 26.3%

**Q.** What does the source list for `Cc1cccc(C)c1N(C(=O)CCl)C1CCOC1=O` (stereo not drawn) [Ofurace, ofurace]?
**A.** % Disease Control (Observed) ([1]; 1.90 ppm alone): 12.3%; % Disease Control (Observed) ([1]; 5.60 ppm alone): 61.0%; pest or weed control at 0.6 ppm ([3]; Phytophthora infestans, 72 h, read-out: % Disease Control (observed), 3DP, 0.60 ppm alone): 0%; pest or weed control at 1.9 ppm ([3]; Phytophthora infestans, 72 h, read-out: % Disease Control (observed), 3DP, 1.90 ppm alone): 0%; % Disease Control (Observed) ([2]; 0.60 ppm alone): 21.1%
